Like-named read-outs stand apart in the source and are kept apart here.
Key:
[1] = system: A2058 metastatic melanoma; test: Mouse xenograft tumor growth; format: in vivo, CD-1 nude mice
Procedure: NCI-A2058 human melanoma cell line was grown as monolayer culture in Minimum essential medium (D-MEM) supplemented with 10% fetal bovine serum (FBS), 0.1 mM non-essential amino acid, 1.0 mM sodium pyruvate, 100U/ml penicillin, 100 μg/ml streptomycin and 0.25 μg/ml amphotericin B and L-alanyl-1-glutamine (2 mM) at 37° C. in an atmosphere of 5% CO2 in air. The tumor cells were routinely subcultured twice weekly by trypsin-EDTA treatment. The cells were harvested from subconfluent logarithmically growing culture by treatment with typsin-EDTA and counted for tumor inoculation.
An acclimation period of at least 7 days were allowed between animal receipt and commence of tumor inoculation. When the female CD-1 nude mice were more than 6-7 weeks of age (20-25 g), each mouse was subcutaneously injected with 5.0×10^6 NCI-A2058 human melanoma cells in 0.1 ml of PBS solution at the right flank of the mice to induce tumor growth.

[2] = system: SR; test: In-Vitro Testing SRB panel: Leukemia; format: cell-based
[3] = system: ROP-62; format: cell-based
[4] = system: SF-268; test: In-Vitro Testing SRB panel: CNS Cancer; format: cell-based; conditions: SF-268
[5] = system: SK-MEL-2B; test: In-Vitro Testing SRB panel: Melanoma; format: cell-based
[6] = system: IGROV1; test: In-Vitro Testing SRB panel: Ovarian Cancer; format: cell-based
[7] = system: SN12C; test: In-Vitro Testing SRB panel: Renal Cancer; format: cell-based
[8] = system: PC-3; test: In-Vitro Testing SRB panel: Prostate Cancer; format: cell-based; conditions: PC-3
[9] = Homo sapiens, read-out: LC50 (the source's name)

## COc1cccc2c1C(c1ccccc1Cl)c1cc(Cl)ccc1N(C(=O)c1ccc([N+](=O)[O-])cc1)C2 (stereo not drawn) [Compound 31]
[1]
  tumor growth: showed inhibition of tumor growth
[2]
  TGI: >1.00E−04 Molar
[2]; Homo sapiens
  GI50: 128 nM
[2]; [9]
  CC50: > 100 µM
[2]; log10 conc -4 Molar
  Percent Growth: 4%
[2]; log10 conc -5 Molar
  Percent Growth: 7%
[2]; log10 conc -6 Molar
  Percent Growth: 13%
[2]; log10 conc -7 Molar
  Percent Growth: 54%
[2]; log10 conc -8 Molar
  Percent Growth: 94%
[3]; Homo sapiens
  GI50: > 100 µM
[3]; Homo sapiens, ROP-62, read-out: LC50 (the source's name)
  CC50: > 100 µM
[3]; ROP-62
  TGI: >1.00E−04 Molar
[3]; ROP-62, log10 conc -4 Molar
  Percent Growth: 50%
[3]; ROP-62, log10 conc -5 Molar
  Percent Growth: 79%
[3]; ROP-62, log10 conc -6 Molar
  Percent Growth: 88%
[3]; ROP-62, log10 conc -7 Molar
  Percent Growth: 105%
[3]; ROP-62, log10 conc -8 Molar
  Percent Growth: 100%
[4]; Homo sapiens
  GI50: 5.28 µM
[4]; [9]
  CC50: > 100 µM
[4]
  TGI: >1.00E−04 Molar
[4]; log10 conc -4 Molar
  Percent Growth: 46%
[4]; log10 conc -5 Molar
  Percent Growth: 47%
[4]; log10 conc -6 Molar
  Percent Growth: 59%
[4]; log10 conc -7 Molar
  Percent Growth: 105%
[4]; log10 conc -8 Molar
  Percent Growth: 94%
[5]; Homo sapiens
  GI50: 7.47 µM
[5]; Homo sapiens, SK-MEL-2B, read-out: LC50 (the source's name)
  CC50: > 100 µM
[5]; SK-MEL-2B
  TGI: >1.00E−04 Molar
[5]; SK-MEL-2B, log10 conc -4 Molar
  Percent Growth: 31%
[5]; SK-MEL-2B, log10 conc -5 Molar
  Percent Growth: 48%
[5]; SK-MEL-2B, log10 conc -6 Molar
  Percent Growth: 62%
[5]; SK-MEL-2B, log10 conc -7 Molar
  Percent Growth: 87%
[5]; SK-MEL-2B, log10 conc -8 Molar
  Percent Growth: 92%
[6]; Homo sapiens, IGROV-1
  GI50: 2130 nM
[6]; Homo sapiens, IGROV-1, IGROV1, read-out: LC50 (the source's name)
  CC50: > 100 µM
[6]; IGROV1
  TGI: >1.00E−04 Molar
[6]; IGROV1, log10 conc -4 Molar
  Percent Growth: 29%
[6]; IGROV1, log10 conc -5 Molar
  Percent Growth: 35%
[6]; IGROV1, log10 conc -6 Molar
  Percent Growth: 57%
[6]; IGROV1, log10 conc -7 Molar
  Percent Growth: 80%
[6]; IGROV1, log10 conc -8 Molar
  Percent Growth: 94%
[7]
  TGI: >1.00E−04 Molar
[7]; Homo sapiens
  GI50: 6.93 µM
[7]; [9]
  CC50: > 100 µM
[7]; log10 conc -4 Molar
  Percent Growth: 30%
[7]; log10 conc -5 Molar
  Percent Growth: 43%
[7]; log10 conc -6 Molar
  Percent Growth: 85%
[7]; log10 conc -7 Molar
  Percent Growth: 101%
[7]; log10 conc -8 Molar
  Percent Growth: 94%
[8]; Homo sapiens
  GI50: 334 nM
[8]; [9]
  CC50: > 100 µM
[8]
  TGI: 7.30E−06 Molar
[8]; log10 conc -4 Molar
  Percent Growth: −26%
[8]; log10 conc -5 Molar
  Percent Growth: −6%
[8]; log10 conc -6 Molar
  Percent Growth: 35%
[8]; log10 conc -7 Molar
  Percent Growth: 66%
[8]; log10 conc -8 Molar
  Percent Growth: 91%
